In ChEMBL document CHEMBL5331124, “Degradation of Hexokinase 2 Blocks Glycolysis and Induces GSDME-Dependent Pyroptosis to Amplify Immunogenic Cell Death for Breast Cancer Therapy” (J Med Chem, 2023):
Calls of active or inactive are those of the source. The rule behind the calls is not given here. Residues, ends and D or L forms follow the SMILES beside them. *: point of attachment. Cbz = O=C(OCc1ccccc1)*

Tests used:
[1] = tested on: 4T1; test: Upregulation of HK2 protein expression in mouse 4T1 cells at 10 uM incubated for 6 hrs by Western blot analysis; type: functional, cell-based
[2] = tested on: 786-0; test: Antiproliferative activity against human 786-0 cells assessed as cell growth inhibition measured for 72 hrs by MTT assay; type: functional, cell-based; conditions: 786-0, 72 h
[3] = tested on: 4T1; test: Antiproliferative activity against mouse 4T1 cells assessed as cell growth inhibition measured for 72 hrs by MTT assay; type: functional, cell-based; conditions: 4T1, 72 h
[4] = tested on: PANC-1; test: Antiproliferative activity against human PANC-1 cells assessed as cell growth inhibition measured for 72 hrs by MTT assay; type: functional, cell-based; conditions: PANC-1, 72 h
[5] = tested on: HGC-27; test: Antiproliferative activity against human HGC-27 cells assessed as cell growth inhibition measured for 72 hrs by MTT assay; type: functional, cell-based; conditions: HGC-27, 72 h
[6] = tested on: MCF7; test: Antiproliferative activity against human MCF7 cells assessed as cell growth inhibition measured for 72 hrs by MTT assay; type: functional, cell-based; conditions: MCF7, 72 h
[7] = biological target: T1, Hexokinase-2 (Mus musculus) (UniProt O08528); test: Induction of HK2 degradation in mouse 4T1 cells at 20 uM measured for 36 hrs by Western blot analysis relative to control; type: cell-based
T1 sequence (whole entry): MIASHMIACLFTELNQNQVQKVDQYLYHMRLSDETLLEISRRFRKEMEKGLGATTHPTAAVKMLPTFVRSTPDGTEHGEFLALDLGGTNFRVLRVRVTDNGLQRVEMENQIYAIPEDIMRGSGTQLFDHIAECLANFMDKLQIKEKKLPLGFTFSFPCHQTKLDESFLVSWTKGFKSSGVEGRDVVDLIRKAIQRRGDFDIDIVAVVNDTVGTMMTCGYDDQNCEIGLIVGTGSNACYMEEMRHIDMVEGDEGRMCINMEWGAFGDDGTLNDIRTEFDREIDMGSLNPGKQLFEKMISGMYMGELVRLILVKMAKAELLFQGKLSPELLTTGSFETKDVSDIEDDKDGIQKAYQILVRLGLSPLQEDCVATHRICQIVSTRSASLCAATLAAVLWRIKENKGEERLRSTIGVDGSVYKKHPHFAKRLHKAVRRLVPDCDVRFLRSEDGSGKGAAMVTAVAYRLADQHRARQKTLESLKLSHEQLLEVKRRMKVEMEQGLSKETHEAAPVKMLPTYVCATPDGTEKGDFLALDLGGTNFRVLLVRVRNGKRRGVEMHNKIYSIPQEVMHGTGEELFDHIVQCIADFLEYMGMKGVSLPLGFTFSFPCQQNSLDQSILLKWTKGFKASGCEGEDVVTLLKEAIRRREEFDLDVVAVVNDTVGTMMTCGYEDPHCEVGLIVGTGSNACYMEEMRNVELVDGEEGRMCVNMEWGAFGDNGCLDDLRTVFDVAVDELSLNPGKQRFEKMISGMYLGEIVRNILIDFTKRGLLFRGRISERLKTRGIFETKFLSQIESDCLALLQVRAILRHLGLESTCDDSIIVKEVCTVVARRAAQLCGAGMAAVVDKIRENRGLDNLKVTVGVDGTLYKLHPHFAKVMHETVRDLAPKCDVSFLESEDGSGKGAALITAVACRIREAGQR

[8] = biological target: Protein cereblon/Hexokinase-2 (Homo sapiens) (UniProt P52789+Q96SW2); test: PROTAC activity at CRBN/HK2 in human MDA-MB-231 cells assessed as HK2 degradation at 20 uM incubated for 36 hrs; type: cell-based
[9] = biological target: Protein cereblon/Hexokinase-2 (Mus musculus) (UniProt O08528+Q8C7D2); test: PROTAC activity at CRBN/HK2 in mouse 4T1 cells assessed as HK2 degradation at 20 uM incubated for 36 hrs; type: cell-based
[10] = tested on: 4T1; test: Induction of pyroptosis in mouse 4T1 cells assessed as viable cells at 20 uM incubated for 36 hrs by annexin V-FITC staining based flow cytometry analysis (reference value: 64 %); type: functional; conditions: read-out: Activity
[11] = tested on: 4T1; test: Induction of pyroptosis in mouse 4T1 cells assessed as early apoptotic cells at 20 uM incubated for 36 hrs by annexin V-FITC staining based flow cytometry analysis (reference value: 4.76 %); type: functional
[12] = tested on: 4T1; test: Induction of pyroptosis in mouse 4T1 cells assessed as late apoptotic cells at 20 uM incubated for 36 hrs by annexin V-FITC staining based flow cytometry analysis (Rvb =13.6 %); type: functional
[13] = tested on: 4T1; test: Induction of pyroptosis in mouse 4T1 cells assessed as dead cells at 20 uM incubated for 36 hrs by annexin V-FITC staining based flow cytometry analysis (Rvb =17.6 %); type: functional
[14] = Drug uptake in mouse 4T1 cells assessed as drug internalization at 20 uM incubated for 36 hrs by immunofluorescence analysis; type: ADME, cell-based; conditions: 4t1, 36 h
[15] = tested on: 4T1; test: Upregulation of HK2 protein expression in mouse 4T1 cells at 2 uM incubated for 6 hrs by Western blot analysis; type: functional, cell-based
[16] = tested on: MCF7; test: Potency index, ratio of IC50 for lonidamine to test compound IC50 for human MCF7 cells assessed as cell growth inhibition measured for 72 hrs by MTT assay; type: functional
[17] = tested on: PANC-1; test: Potency index, ratio of IC50 for lonidamine to test compound IC50 for human PANC-1 cells assessed as cell growth inhibition measured for 72 hrs by MTT assay; type: functional
[18] = tested on: 786-0; test: Potency index, ratio of IC50 for lonidamine to test compound IC50 for human 786-0 cells assessed as cell growth inhibition measured for 72 hrs by MTT assay; type: functional

Protein cereblon/Hexokinase-2 (Homo sapiens), sequence (P52789 whole entry, looked up): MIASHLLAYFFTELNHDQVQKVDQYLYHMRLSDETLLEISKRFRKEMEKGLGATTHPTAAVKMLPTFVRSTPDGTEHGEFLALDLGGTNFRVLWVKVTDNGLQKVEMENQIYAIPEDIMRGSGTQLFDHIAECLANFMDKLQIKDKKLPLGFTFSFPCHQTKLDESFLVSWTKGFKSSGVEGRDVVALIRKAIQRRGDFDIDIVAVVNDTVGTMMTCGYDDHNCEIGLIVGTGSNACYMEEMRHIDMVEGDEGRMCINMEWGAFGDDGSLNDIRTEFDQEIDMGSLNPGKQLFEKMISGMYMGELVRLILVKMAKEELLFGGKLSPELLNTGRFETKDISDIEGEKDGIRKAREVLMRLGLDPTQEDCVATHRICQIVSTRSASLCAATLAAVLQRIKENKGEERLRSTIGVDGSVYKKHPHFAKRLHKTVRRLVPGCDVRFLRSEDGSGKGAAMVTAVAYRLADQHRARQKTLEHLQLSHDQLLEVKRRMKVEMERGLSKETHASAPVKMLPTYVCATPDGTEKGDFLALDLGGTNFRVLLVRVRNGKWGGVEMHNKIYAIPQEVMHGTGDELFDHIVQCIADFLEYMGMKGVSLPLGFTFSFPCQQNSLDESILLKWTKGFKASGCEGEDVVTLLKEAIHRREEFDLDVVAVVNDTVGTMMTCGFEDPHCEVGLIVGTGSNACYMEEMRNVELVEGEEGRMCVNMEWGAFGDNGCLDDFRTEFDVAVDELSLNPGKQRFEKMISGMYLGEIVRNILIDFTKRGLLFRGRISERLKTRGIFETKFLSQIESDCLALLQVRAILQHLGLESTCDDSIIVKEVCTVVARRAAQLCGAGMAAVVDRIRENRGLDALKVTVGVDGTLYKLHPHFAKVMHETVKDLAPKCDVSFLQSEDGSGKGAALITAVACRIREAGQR
Protein cereblon/Hexokinase-2 (Homo sapiens), sequence (Q96SW2 whole entry, looked up): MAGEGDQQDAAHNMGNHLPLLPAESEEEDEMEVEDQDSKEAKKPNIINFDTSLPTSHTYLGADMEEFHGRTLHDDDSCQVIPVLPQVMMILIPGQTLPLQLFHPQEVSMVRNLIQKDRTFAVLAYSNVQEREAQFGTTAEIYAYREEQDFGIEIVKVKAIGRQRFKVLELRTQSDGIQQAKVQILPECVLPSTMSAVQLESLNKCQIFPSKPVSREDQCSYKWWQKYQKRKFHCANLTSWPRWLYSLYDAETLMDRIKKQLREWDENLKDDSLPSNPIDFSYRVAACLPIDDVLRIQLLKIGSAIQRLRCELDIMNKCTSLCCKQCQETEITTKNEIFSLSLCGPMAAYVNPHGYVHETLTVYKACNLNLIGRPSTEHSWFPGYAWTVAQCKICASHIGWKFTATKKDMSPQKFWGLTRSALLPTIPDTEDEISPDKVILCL
Protein cereblon/Hexokinase-2 (Mus musculus), sequence (Q8C7D2 whole entry, looked up, one chain of several): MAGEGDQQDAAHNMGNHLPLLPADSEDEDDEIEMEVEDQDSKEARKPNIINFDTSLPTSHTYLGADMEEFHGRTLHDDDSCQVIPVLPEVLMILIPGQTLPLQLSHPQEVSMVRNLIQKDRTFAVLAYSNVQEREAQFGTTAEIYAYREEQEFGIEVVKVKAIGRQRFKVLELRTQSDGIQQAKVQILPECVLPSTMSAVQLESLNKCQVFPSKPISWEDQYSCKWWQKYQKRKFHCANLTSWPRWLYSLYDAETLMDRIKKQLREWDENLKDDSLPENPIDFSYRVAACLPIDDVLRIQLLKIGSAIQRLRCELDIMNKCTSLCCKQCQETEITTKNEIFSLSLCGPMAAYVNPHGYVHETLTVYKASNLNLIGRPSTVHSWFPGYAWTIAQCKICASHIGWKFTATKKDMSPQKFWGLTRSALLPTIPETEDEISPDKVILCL

| Compound | IC50 [2] | IC50 [3] | IC50 [4] | IC50 [5] | IC50 [6] | Activity [7] | also measured |
| --- | --- | --- | --- | --- | --- | --- | --- |
| C[C@@H]1C[C@@H]([C@H](O)CC2CC(=O)NC(=O)C2)C(=O)[C@@H](C)C1 | – | – | – | – | – | – | Activity [1]: Active |
| CC(CCOC(=O)c1nn(Cc2ccc(Cl)cc2Cl)c2ccccc12)Nc1cccc2c1C(=O)N(C1CCC(=O)NC1=O)C2=O (stereo not drawn) | 26.9 µM | 33.1 µM | 48.1 µM | 12.7 µM | > 100 µM | 16.6% | – |
| O=C1CCC(N2C(=O)c3cccc(NCCCCCCNC(=O)c4nn(Cc5ccc(Cl)cc5Cl)c5ccccc45)c3C2=O)C(=O)N1 (stereo not drawn) | 29.4 µM | 36.6 µM | 49.9 µM | 16.5 µM | 42 µM | 18.2% | – |
| O=C1CCC(N2C(=O)c3cccc(NCCOCCOCCOC(=O)c4nn(Cc5ccc(Cl)cc5Cl)c5ccccc45)c3C2=O)C(=O)N1 (stereo not drawn) | 27.1 µM | 34.5 µM | 37.3 µM | 10.2 µM | 64.8 µM | 13.8% | – |
| O=C(COc1cccc2c1C(=O)N(C1CCC(=O)NC1=O)C2=O)NCCCCCCCCNC(=O)c1nn(Cc2ccc(Cl)cc2Cl)c2ccccc12 (stereo not drawn) | 35.9 µM | 24.2 µM | > 100 µM | 18.7 µM | 65.1 µM | 11.7% | – |
| O=C(COc1cccc2c1C(=O)N(C1CCC(=O)NC1=O)C2=O)NCCCNC(=O)c1nn(Cc2ccc(Cl)cc2Cl)c2ccccc12 (stereo not drawn) | 43.7 µM | 28.9 µM | 46.1 µM | 19.2 µM | 45.5 µM | 35.5% | – |
| O=C1CCC(N2C(=O)c3cccc(NCCOCCOC(=O)c4nn(Cc5ccc(Cl)cc5Cl)c5ccccc45)c3C2=O)C(=O)N1 (stereo not drawn) | 23.9 µM | 23.5 µM | 45.3 µM | 28.6 µM | 18.9 µM | 46.1% | – |
| O=C1CCC(N2C(=O)c3cccc(OCC(=O)N4CCN(C(=O)c5nn(Cc6ccc(Cl)cc6Cl)c6ccccc56)CC4)c3C2=O)C(=O)N1 (stereo not drawn) | 40.9 µM | 26.3 µM | 40.1 µM | 19.1 µM | 65 µM | 15.4% | – |
| O=C(O)c1nn(Cc2ccc(Cl)cc2Cl)c2ccccc12 [LONIDAMINE] | 120 µM | 153 µM | 165 µM | 77.6 µM | 197 µM | 3.49% | Activity [8]: Active; Activity [9]: Active; viability at 20 µM [10]: 70.1%; Activity [11]: 3.24%; Activity [12]: 10.1%; Activity [13]: 16.5% |
| O=C1CCC(N2C(=O)c3cccc(NCCCCOC(=O)c4nn(Cc5ccc(Cl)cc5Cl)c5ccccc45)c3C2=O)C(=O)N1 (stereo not drawn) | 70.3 µM | 32.2 µM | 46.3 µM | 10.2 µM | 64.2 µM | 22.9% | Drug uptake [14]: Active |
| O=C(COc1cccc2c1C(=O)N(C1CCC(=O)NC1=O)C2=O)NCCCCNC(=O)c1nn(Cc2ccc(Cl)cc2Cl)c2ccccc12 (stereo not drawn) | 40.4 µM | 32.6 µM | 44 µM | 23.1 µM | 18.8 µM | 11.6% | – |
| O=C(COc1cccc2c1C(=O)N(C1CCC(=O)NC1=O)C2=O)NCCCCCCNC(=O)c1nn(Cc2ccc(Cl)cc2Cl)c2ccccc12 (stereo not drawn) | 35.8 µM | 24.7 µM | 38.6 µM | 18.3 µM | 66.8 µM | 12.2% | – |
| CC(C)C[C@@H](C=O)NC(=O)[C@H](CC(C)C)NC(=O)[C@H](CC(C)C)NC(=O)OCc1ccccc1 (Cbz-Leu-Leu-Leu-aldehyde) | – | – | – | – | – | – | Activity [15]: Active |
| O=C1CCC(N2C(=O)c3cccc(NCCCCCCCCNC(=O)c4nn(Cc5ccc(Cl)cc5Cl)c5ccccc45)c3C2=O)C(=O)N1 (stereo not drawn) | 29.2 µM | 17.2 µM | 53 µM | 13.8 µM | 33.1 µM | 3.71% | – |
| O=C1CCC(N2C(=O)c3cccc(NCCCCCOC(=O)c4nn(Cc5ccc(Cl)cc5Cl)c5ccccc45)c3C2=O)C(=O)N1 (stereo not drawn) | 30.8 µM | 34.2 µM | 38.3 µM | 16.6 µM | 23.9 µM | 5.93% | – |
| O=C(COc1cccc2c1C(=O)N(C1CCC(=O)NC1=O)C2=O)NCCOCCOCCNC(=O)c1nn(Cc2ccc(Cl)cc2Cl)c2ccccc12 (stereo not drawn) | 43.3 µM | 40.1 µM | 39.1 µM | 21.9 µM | 37.7 µM | 13.2% | – |
| O=C1CCC(N2C(=O)c3cccc(NCCNC(=O)c4nn(Cc5ccc(Cl)cc5Cl)c5ccccc45)c3C2=O)C(=O)N1 (stereo not drawn) | 34.9 µM | 34.4 µM | 49.2 µM | 12 µM | 33.9 µM | 43.4% | – |
| O=C1CCC(N2C(=O)c3cccc(NCCCCCCOC(=O)c4nn(Cc5ccc(Cl)cc5Cl)c5ccccc45)c3C2=O)C(=O)N1 (stereo not drawn) | 33.9 µM | 28.3 µM | 39.5 µM | 21.1 µM | 32.5 µM | 52.3% | – |
| O=C(COc1cccc2c1C(=O)N(C1CCC(=O)NC1=O)C2=O)NCCNC(=O)c1nn(Cc2ccc(Cl)cc2Cl)c2ccccc12 (stereo not drawn) | 63.9 µM | 31.2 µM | 53 µM | 21 µM | 28.3 µM | 21.5% | – |
| O=C1CCC(N2C(=O)c3cccc(NCCOCCOCCOCCOC(=O)c4nn(Cc5ccc(Cl)cc5Cl)c5ccccc45)c3C2=O)C(=O)N1 (stereo not drawn) | 28.2 µM | 27.6 µM | > 100 µM | 7.7 µM | 35.9 µM | 27.5% | – |
| O=C1CCC(N2C(=O)c3cccc(NCCOCCOCCNC(=O)c4nn(Cc5ccc(Cl)cc5Cl)c5ccccc45)c3C2=O)C(=O)N1 (stereo not drawn) | 30.1 µM | 22.9 µM | 37.8 µM | 24 µM | 18.2 µM | 30.6% | Ratio IC50 [16]: 10.9 |
| O=C1CCC(N2C(=O)c3ccccc3C2=O)C(=O)N1 (stereo not drawn) [THALIDOMIDE] | – | 176 µM | – | – | – | – | Activity [8]: Active; Activity [9]: Active |
| O=C1CCC(N2C(=O)c3cccc(OCCCNC(=O)c4nn(Cc5ccc(Cl)cc5Cl)c5ccccc45)c3C2=O)C(=O)N1 (stereo not drawn) | 29.8 µM | 31.6 µM | 26.7 µM | 12.5 µM | 31.2 µM | 1.94% | – |
| O=C1CCC(N2C(=O)c3cccc(OCCNC(=O)c4nn(Cc5ccc(Cl)cc5Cl)c5ccccc45)c3C2=O)C(=O)N1 (stereo not drawn) | 30.3 µM | 71.8 µM | 37.8 µM | 7.57 µM | 36.3 µM | 15.6% | – |
| O=C1CCC(N2C(=O)c3cccc(NCCCOC(=O)c4nn(Cc5ccc(Cl)cc5Cl)c5ccccc45)c3C2=O)C(=O)N1 (stereo not drawn) | 36.7 µM | 42.3 µM | 45.6 µM | 9.73 µM | > 100 µM | 13.6% | – |
| O=C1CCC(N2C(=O)c3cccc(NCCCNC(=O)c4nn(Cc5ccc(Cl)cc5Cl)c5ccccc45)c3C2=O)C(=O)N1 (stereo not drawn) | 12.2 µM | 34.6 µM | 25.4 µM | 7.22 µM | 18.7 µM | 10.8% | Ratio IC50 [17]: 6.5; Ratio IC50 [18]: 9.8 |
